{
  "source": "a melting point compilation (Tetko et al.; mined from patent text by program, amines drawn as free bases though some values may be those of a salt)",
  "data": [
    {"units": {"melting point": "°C"}, "values": [
      {"smiles": "COC(=O)c1ccc2c(c1)C(=O)CC(C)(COc1ccc([N+](=O)[O-])cc1)O2", "note": "(configuration not stated)", "melting point": "144 to 145"},
      {"smiles": "CCCc1c(C(=O)OCC)sc(NC(=O)C(=O)OCC)c1[N+](=O)[O-]", "melting point": "73 to 75"},
      {"smiles": "O=C(c1cnoc1)N1CCCCC1", "melting point": "78 to 81"},
      {"smiles": "Cc1nc(C=O)c2n1-c1ccc(Cl)cc1C(c1ccccc1)=NC2", "melting point": "218 to 220"},
      {"smiles": "CCOC(=O)c1nc2c(=O)[nH]c3cc(C(F)(F)F)ccc3n2c1CBr", "melting point": "247 to 248"},
      {"smiles": "O=C1c2c(O)ccc(O)c2C(=O)c2c(NCCN3CCOC34CCCCC4)ccc(NCCN3CCOC34CCCCC4)c21", "melting point": "218 to 225"},
      {"smiles": "CCOC(=O)C1=COc2ccc(O)cc2O1", "melting point": 160},
      {"smiles": "C#CC(Cc1ccc(OC)c(OC2CCCC2)c1)C(=O)O", "note": "(configuration not stated)", "melting point": "109 to 110"},
      {"smiles": "CC(C)(CCl)C(OC(=O)C(Cl)Cl)C(Oc1ccc(Cl)cc1)n1ccnc1", "note": "(configuration not stated)", "melting point": "108 to 110"},
      {"smiles": "CC(C)N(CCn1cc(C(=O)NCc2ccc(Cl)cc2)c(=O)c2cc(C#CCO)ccc21)C(C)C", "melting point": "188 to 191"},
      {"smiles": "CCCCCCCCCCCCCCC(CCC(=O)OCc1ccccc1)C(=O)O", "note": "(configuration not stated)", "melting point": "62 to 63"},
      {"smiles": "CCC(=S)c1ccc(C)cc1", "melting point": "55 to 56"},
      {"smiles": "O=C1c2ccccc2CN1C1CCN(c2ccc(C(O)c3ccccc3)cc2)CC1", "note": "(configuration not stated)", "melting point": "211 to 214"},
      {"smiles": "COC(=O)C(Cc1ccccc1)NC(=S)Nc1nc(C)cs1", "note": "(racemic)", "melting point": "131 to 132"},
      {"smiles": "Cn1cc(S(C)=O)c(=O)c2ccc(Br)cc21", "note": "(configuration not stated)", "melting point": "248 to 249"},
      {"smiles": "O=C(Cc1ccccc1)NC1C(=O)N2CC(C(=O)OCc3ccccc3)SC12", "note": "(configuration not stated)", "melting point": "130 to 132"},
      {"smiles": "CN(CCOc1ccc(OC(F)(F)F)cc1)CC1(C)Cn2cc([N+](=O)[O-])nc2O1", "note": "(configuration not stated)", "melting point": "86.4 to 89.2"},
      {"smiles": "O=C1N(Cc2ccco2)c2ccccc2C12COc1cc3c(cc12)OCO3", "note": "(configuration not stated)", "melting point": "110 to 112"},
      {"smiles": "O=c1c2scc(Br)c2ncn1O", "melting point": "244 to 247"},
      {"smiles": "Clc1ccc(C(c2ccc(Cl)cc2)(c2nc[nH]n2)n2ccnc2)cc1", "melting point": "188 to 191"},
      {"smiles": "CCCN(CCC)[C@@H]1CCc2cc(CNC(=O)c3ccc(Cl)cc3)ccc2C1", "melting point": "141 to 142"},
      {"smiles": "COC(=O)c1c([N+](=O)[O-])cccc1S(=O)(=O)N(C)CCO", "melting point": "98 to 101"},
      {"smiles": "COC(=O)c1sccc1OCC(O)CN1CCC(O)(c2ccccc2)CC1", "note": "(configuration not stated)", "melting point": "150 to 152"},
      {"smiles": "CNc1cccc(F)c1C#N", "melting point": "130 to 132"},
      {"smiles": "CCCCOC(=O)[C@H]1CN(c2ccc3c(c2)oc(=O)n3C)C(=O)O1", "melting point": "182 to 184"},
      {"smiles": "CSc1nc(N)c2ncn(C3CCCCC3)c2n1", "melting point": "222 to 224"},
      {"smiles": "CC(C)(C)NC(=O)[C@@H]1CSCN1", "melting point": "68 to 71"},
      {"smiles": "O=C1Nc2c(F)cc(F)cc2C1c1ncnc2nn(C3CCCC3)cc12", "note": "(configuration not stated)", "melting point": "296 to 297"},
      {"smiles": "Cc1cccc(CC(NC(=O)C(c2ccccc2)c2ccccc2)C(=O)NC(C#N)CCOc2cccc(C(=O)O)c2)c1", "note": "(configuration not stated)", "melting point": "169 to 170"},
      {"smiles": "COc1coc2ccc(OCCCCCCN3CCC(O)CC3)cc2c1=O", "melting point": "124 to 125"},
      {"smiles": "CN1CCC2(CC1)NC(c1ccccc1)c1cc(Cl)ccc1N(C)C2=O", "note": "(configuration not stated)", "melting point": 196},
      {"smiles": "CCCCCCCCCCCCCCCCCCS(=O)(=O)c1cc2ccccc2cc1O", "melting point": "98 to 99"},
      {"smiles": "COCOc1nn(-c2ccccc2)cc1/C=C/c1csc(C(C)(C)C)n1", "melting point": "112 to 113"},
      {"smiles": "O=C1CCCc2nc(C#Cc3ccccc3)ccc21", "melting point": "121 to 122"},
      {"smiles": "C=CCn1nnc2cc3c(=O)n(C(C)Cn4ncnn4)nnc3cc2c1=O", "note": "(configuration not stated)", "melting point": "159 to 161"},
      {"smiles": "CCOC(=O)c1c(C)nc2c(ncn2C)c1Cl", "melting point": "56 to 58"},
      {"smiles": "Cc1cc(-c2nc3cccnn3c2-c2ccnc(NC(=O)C3CC3)c2)ccc1F", "melting point": "217 to 218"},
      {"smiles": "CC(C)n1cc(-c2nc(C#N)c(N)nc2-c2ccc(F)c(F)c2)ccc1=O", "melting point": 180},
      {"smiles": "NC[C@H]1COc2ccc(F)c(-c3ccc(Cl)cc3Cl)c2O1", "melting point": 65},
      {"smiles": "COC(=O)c1cc(Br)ncc1F", "melting point": "43 to 46"},
      {"smiles": "COc1ccc(-c2cc(-c3ccccc3)[nH]c2C(=O)NCc2ccc(C(=O)NO)cc2)cc1", "melting point": "187 to 188"},
      {"smiles": "O=C1C(=O)c2ccccc2C2=C1SCC1(CCN(Cc3c(F)cccc3Cl)CC1)O2", "melting point": "90 to 92"},
      {"smiles": "COC(=O)C1=C(C)NC(C)=C(c2nc(C)no2)C1c1cccc(N)c1", "note": "(configuration not stated)", "melting point": "248 to 249"},
      {"smiles": "C=CC(=O)OCC(CCCCCCCCCCCOc1ccc(-c2cccc(F)c2F)cc1)COC(=O)C=C", "melting point": "33.4 to 34.4"},
      {"smiles": "C[C@H](NC(C#N)CCc1ccccc1)C(=O)O", "note": "(some centres not stated)", "melting point": 115},
      {"smiles": "CC(C)(C)NCC(O)COc1ccc(-c2nc(-c3ccccc3)c[nH]2)cc1", "note": "(configuration not stated)", "melting point": "176 to 178"},
      {"smiles": "N#Cc1ccc(OCc2ccc3c(c2)OCO3)cc1OC(C(=O)O)c1ccccc1Cl", "note": "(racemic)", "melting point": "144 to 145"},
      {"smiles": "Cc1nc(CN)c2n1-c1ccc(Cl)cc1C(c1ccccc1)=NC2", "melting point": "217 to 219"},
      {"smiles": "CON=C(c1ccccc1)c1ccc2c(c1)C(C)(C)CCN2CCOc1ccc(CC(Nc2ccccc2C(=O)c2ccccc2)C(=O)O)cc1", "note": "(configuration not stated)", "melting point": "100 to 102"},
      {"smiles": "CCOC(=O)C(CC#N)(C(=O)OCC)c1ccc([N+](=O)[O-])cn1", "melting point": "66 to 68"},
      {"smiles": "O=[N+]([O-])C1([N+](=O)[O-])CN(C(F)(F)F)C1", "melting point": "70 to 71"},
      {"smiles": "Cc1ccc(C2=NNC(=O)C3CC23)cc1", "note": "(configuration not stated)", "melting point": "162 to 164"},
      {"smiles": "N#Cc1cnc2cc(Br)sc2c1Cl", "melting point": "190 to 191"},
      {"smiles": "Cc1nn(C)c(C)c1-c1ccc(OC2SCC(O)C(O)C2O)cn1", "note": "(configuration not stated)", "melting point": 132},
      {"smiles": "Cc1c(C#N)ncn1-c1cccc(Oc2ccccc2)c1", "melting point": "97 to 98"},
      {"smiles": "CCC(=CC(CNC(=O)c1cnc2ccccc2c1)=NO)C(C)[N+](=O)[O-]", "note": "(configuration not stated)", "melting point": "168 to 170"},
      {"smiles": "CCCCNC(=O)Nc1ccccc1NC(=O)NCCCC", "melting point": "163 to 164"},
      {"smiles": "COCCOC1=CC(=O)C(Nc2ncnc3cc(OCCOC)c(OC)cc23)=CC1=O", "melting point": "211 to 212"},
      {"smiles": "O=C(COC1Cc2cccc(O)c2CC1OCC(=O)N1CCOCC1)N1CCOCC1", "note": "(configuration not stated)", "melting point": "68 to 77"},
      {"smiles": "O=C1CCC(N2C(=O)c3cccc(Nc4ccc(C5CCCCC5)cc4)c3C2=O)C(=O)N1", "note": "(configuration not stated)", "melting point": "219 to 221"},
      {"smiles": "CC(=S)NCC1CN(c2ccc(-c3csc(Cn4cncn4)n3)c(F)c2)C(=O)O1", "note": "(configuration not stated)", "melting point": "82 to 84"},
      {"smiles": "CSc1ccc2ccc(N3C(=O)c4ccccc4C3O)nc2n1", "note": "(configuration not stated)", "melting point": 210},
      {"smiles": "Cc1ccc(C(=O)Nc2nc(-c3ccccc3)c(-c3nc4ccccc4c(=O)n3-c3ccc(C)cc3)s2)cc1", "melting point": "217 to 218"},
      {"smiles": "O=C(C=Cc1ccc(Cl)cc1)C1CC1", "melting point": 61},
      {"smiles": "COc1nc(SCc2ccc(F)cc2)cnc1NS(=O)(=O)c1cccc(Cl)c1Cl", "melting point": "119 to 120"},
      {"smiles": "COc1cc(C#N)c(N=C(C)N2CCc3cc(OC)c(OCc4ccccc4)cc3C2)cc1OC", "melting point": "72 to 73"},
      {"smiles": "O=C(Cn1nnnc1-c1ccccc1)OCCO", "melting point": "54 to 55"},
      {"smiles": "N#Cc1csc(Oc2ccc(-c3ccc(Oc4scc(C#N)c4C#N)cc3)cc2)c1C#N", "melting point": "262 to 264"},
      {"smiles": "Cc1cc(NC(=O)CN2CCN(c3ncccc3C#N)CC2)ccc1F", "melting point": "111 to 113"},
      {"smiles": "Fc1cc2c(Nc3ccc(F)c(Br)c3)ncnc2cn1", "melting point": "269 to 270"},
      {"smiles": "CCn1ncc2cc3c(nc21)C(O)c1ccccc1CC3", "note": "(configuration not stated)", "melting point": "130 to 132"},
      {"smiles": "CN(CSC(C)(C)CC(C)(C)C)C(=O)Nc1cccc(C(F)(F)F)c1", "melting point": "52 to 54"}
    ]}
  ]
}
